The values below come from paper PMC8539749 (Viruses, 2021).

In brackets after ≈: the same amount, converted by molar mass. Entries after “also recorded” stand apart in the source; their conditions may differ. Read-outs that look alike come from different tables or passages of the source. Positions of bridges follow the written chain, without caps; N, C: chain ends. Residues, ends and D or L forms follow the SMILES beside them.

The test system of assay [1] is SFTSV. The conditions noted are these: cited from earlier work.
The subject of a further assay is SFTSV Gc glycoprotein. The conditions noted are these: cited from earlier work.
Assay [2] relates to SFTSV. The assay can be described thus: microbe, parasite or virus in culture. The class given is cell-based, SFTSV HB29 strain. Particulars: for IC50: Severe fever with thrombocytopenia syndrome virus.
In assay [3] the test system is SFTSV. It counts as cell-based, SFTSV HB29 strain.
In assay [4] the test system is SFTSV. The class given is cell-based, SFTSV HB29 strain. The source holds these as a separate data set.
The subject of assay [5] is SFTSV. It counts as cell-based, SFTSV HB29 strain. The source holds these as a separate data set.

Regarding `Oc1c(Cl)cc(Cl)c(Cl)c1Cc1c(O)c(Cl)cc(Cl)c1Cl` [hexachlorophene], the anti-SFTSV activity entry in the assay with SFTSV [1] is reported as “inhibited SFTSV replication at low micromolar concentrations”. Further, the likely target entry in the assay with SFTSV Gc glycoprotein is listed as “likely targets the SFTSV Gc glycoprotein”.
For `NC(=O)c1nc(F)c[nH]c1=O` [Favipiravir], the “anti-SFTSV activity in vitro and in vivo” value in the assay with SFTSV [1] is “exhibit in vitro and in vivo activity against SFTSV”. Also, in the assay with SFTSV [1], the broad-spectrum antiviral effects entry is listed as “broad-spectrum antiviral effects against various RNA viruses, including SFTSV”. The IC50 turned out to be 1.25 ± 0.101 µg/mL (≈ 7.94 µM) in the assay on SFTSV [2] (Huh-7, read-out: Favipiravir IC50, alone); 0.979 ± 0.194 µg/mL (≈ 6.23 µM) in the assay on SFTSV [2] (Huh-7, read-out: Favipiravir IC50, with HKU-P1 62.5 μg/mL); 0.864 ± 0.132 µg/mL (≈ 5.5 µM) in the assay with SFTSV [2] (Huh-7, read-out: Favipiravir IC50, with HKU-P1 125 μg/mL); 0.805 ± 0.105 µg/mL (≈ 5.12 µM) in the assay on SFTSV [2] (Huh-7, read-out: Favipiravir IC50, with HKU-P1 250 μg/mL).
For `N=C(N)NCCC[C@@H]1NC(=O)[C@@H](NC(=O)[C@@H](N)CCCCN)CCCCNC(=O)[C@H](CO)NC(=O)CNC(=O)[C@H](Cc2ccccc2)NC(=O)CNC1=O` [HKU-P1] (H-KKRGFGS; lactam 2-C), in the assay with SFTSV [3], the “anti-SFTSV activity (in words)” value is given as “best anti-SFTSV activity; also recorded: displayed anti-SFTSV effects”, the “dose dependence of viral load reduction” value is listed as “reduced SFTSV viral load in a dose-dependent manner” and the “reduction in SFTSV viral RNA load” value was more than 50%. In addition, the “SFTSV-NP expression (immunofluorescence)” value in the assay on SFTSV [4] was “markedly reduced”. In addition, in the assay on SFTSV [5], the “viral load reduction, post-infection group” value was “no significant viral load reduction” and the “viral load reduction, pre-infection group” value is reported as “no significant viral load reduction”. Besides, the “combination effect (in words)” value in the assay with SFTSV [2] was “synergistic antiviral effects in vitro; also recorded: consistently synergistic with favipiravir at different concentrations”.
